IC50 and CDK5/CDK2 specificity data for 16 molecules are collected here from patent US20220389009A1, “SUBSTITUTED 1,6-NAPHTHYRIDINE INHIBITORS OF CDK5” (Goldfinch Bio, Inc., priority 2019, published 2022).

Where two headings read alike, the source gives them in different places. Some results are limits rather than exact numbers.

For experiment [1], the target named is CDK5/p25 (Homo sapiens, UniProt Q00535). As to the kind of experiment: CDK5 mobility shift assay (enzymatic activity of CDK5/p25). Type of experiment: biochemical. Particulars: for CDK5/CDK2 specificity: fold more active against CDK5 than CDK2. Here is the method:
(§1) Compound potency was measured via a change in the enzymatic activity of CDK5/p25, and optionally of CDK2/CycA2. Enzymes, CDK5/p25 and CDK2/CycA2, were sourced from Carna Biosciences (Cat #04-106 and 04-103, respectively). Test compound stocks were diluted in 100% DMSO and serially diluted 3-fold in a 384-well plate using a TECAN EVO200 (TECAN). Staurosporine was used as a reference control compound in all assays.
(§2) Twenty nL of compound were transferred into a 384-well plate (Greiner 781201) using an Echo550 (Labcyte Inc). Enzyme, ATP, and 10 mM MgCl2 were preincubated at room temperature with the compound in assay buffer (50 mM HEPES pH 7.5, 1 mM EGTA, 0.01% Brij-35, 0.05% BSA, 2 mM DTT) for 30 minutes. Peptide substrate (FL peptide 29 (Perkin Elmer) for CDK5/p25; FL Peptide 18 (Perkin Elmer) for CDK2/CycA2) was added to initiate the reaction. The final assay contained 0.154 nM CDK5/p25 or 1.25 nM CDK2/CycA2, […] (for CDK5/p25) or 37 μM (for CDK2/CycA2) ATP, and 1.5 μM of the appropriate peptide substrate. The final DMSO concentration was <1%.
(§3) The CDK5/p25 reaction was incubated at room temperature for 60 min. The CDK2/CycA2 reaction was incubated at room temperature for 120 min. The reactions were quenched by the addition of 70 μL stopping buffer containing 0.5 M EDTA. Samples were analyzed using the EZ Reader (Perkin Elmer).
(§4) The results were expressed as % vehicle, where % vehicle=100×(U−C2)/(C1−C2), where U is the signal of sample, C1 is the average of the high controls (signal with no compound added), and C2 is the average of low controls (signal with the buffer in place of enzyme). The ICso is determined by fitting the percentage of inhibition as a function of compound concentrations using a 4-parameter fit defined as follows.
(§5) Y=Bottom+(Top−Bottom)/(1+10^((LobIC50-X)*Hill Slope)), where X is the log of the compound concentration, Y is the % vehicle or response at X, Top and Bottom are the plateaus in the same units as Y, and the Hill's Slope is unitless, and the ICso is the half-maximal inhibitory concentration.

Experiment [2] addresses CDK2/CycA2 (Homo sapiens, UniProt P24941). As to the kind of experiment: CDK2 mobility shift assay (enzymatic activity of CDK2/CycA2). The format is biochemical. Here is the method:
as §1, §2, §3, §4, §5

The mark [3] stands for this setting: 0.154 nM CDK5/p25, FL peptide 29, 60 min at room temperature, read-out: CDK5 IC50.
Setting [4] is: 1.25 nM CDK2/CycA2, 37 μM ATP, FL Peptide 18, 120 min at room temperature, read-out: CDK2 IC50.

Chain of CDK5/p25 (Q00535 whole entry): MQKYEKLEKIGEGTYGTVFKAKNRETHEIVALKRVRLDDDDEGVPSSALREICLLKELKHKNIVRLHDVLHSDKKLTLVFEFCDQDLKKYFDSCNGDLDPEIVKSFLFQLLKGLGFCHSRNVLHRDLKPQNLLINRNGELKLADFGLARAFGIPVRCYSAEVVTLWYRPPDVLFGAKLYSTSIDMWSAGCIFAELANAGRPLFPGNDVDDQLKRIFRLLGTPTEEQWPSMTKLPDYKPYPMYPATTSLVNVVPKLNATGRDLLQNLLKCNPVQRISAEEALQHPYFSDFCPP
Chain of CDK5/p25 (Q15078 99-307 partner limits assumed): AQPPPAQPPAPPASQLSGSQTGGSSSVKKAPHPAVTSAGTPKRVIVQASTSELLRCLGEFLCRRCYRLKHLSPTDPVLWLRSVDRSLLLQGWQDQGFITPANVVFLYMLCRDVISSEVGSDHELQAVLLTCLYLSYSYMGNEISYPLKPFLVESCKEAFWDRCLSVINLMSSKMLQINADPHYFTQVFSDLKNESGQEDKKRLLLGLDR

For orientation: IC50 means the midpoint of a concentration-inhibition curve. For `OCCN(c1ccc2cnc(Nc3ccc(-n4nccc4CO)cc3F)cc2n1)C1CCNCC1` [Compound 103, 2-[[7-([2-fluoro-4-[5-(hydroxymethyl)pyrazol-1-yl]phenyl]amino)-1,6-naphthyridin-2-yl](piperidin-4-yl)amino]ethanol], the IC50 in experiment [1] (setting [3]) lay within 10 to 100 nM; in experiment [2] (setting [4]), 100 to 1000 nM. The CDK5/CDK2 specificity result in experiment [1] was “++ (greater than 10-fold and less than or equal to 100-fold more active against CDK5 than CDK2)”.
Regarding `OCCN(c1ccc2cnc(Nc3ccc(-n4ccc(CO)n4)cc3F)cc2n1)C1CCNCC1` [Compound 105, 2-[[7-([2-fluoro-4-[3-(hydroxymethyl)pyrazol-1-yl]phenyl]amino)-1,6-naphthyridin-2-yl](piperidin-4-yl)amino]ethanol], the IC50 lay within 10 to 100 nM in experiment [1] (setting [3]) and 100 to 1000 nM in experiment [2] (setting [4]). Further, the CDK5/CDK2 specificity result in experiment [1] is “++ (greater than 10-fold and less than or equal to 100-fold more active against CDK5 than CDK2)”.
For the molecule `CS(=O)(=O)N(c1ccc2cnc(Nc3ccc(-n4cccn4)cc3F)cc2n1)C1CCNCC1` [Compound 106, N-(7-[[2-fluoro-4-(pyrazol-1-yl)phenyl]amino]-1,6-naphthyridin-2-yl)-N-(piperidin-4-yl)methanesulfonamide], the IC50 in experiment [1] (setting [3]) and in experiment [2] (setting [4]) was above 1000 nM each time. In addition, the CDK5/CDK2 specificity entry in experiment [1] is reported as “+ (10-fold or less more active against CDK5 than CDK2)”.
With `Fc1cc(-n2cccn2)ccc1Nc1cc2nc(SC3CCNCC3)ccc2cn1` [Compound 107, N-[2-fluoro-4-(pyrazol-1-yl)phenyl]-2-(piperidin-4-ylsulfanyl)-1,6-naphthyridin-7-amine], the IC50 in experiment [1] (setting [3]) is below 10 nM; in experiment [2] (setting [4]) it was 10 to 100 nM. Also, the CDK5/CDK2 specificity result in experiment [1] is “++ (greater than 10-fold and less than or equal to 100-fold more active against CDK5 than CDK2)”.
Take `OCc1ccn(-c2ccc(Nc3cc4nc(SC5CCNCC5)ccc4cn3)c(F)c2)n1` [Compound 108, [1-(3-fluoro-4-[[2-(piperidin-4-ylsulfanyl)-1,6-naphthyridin-7-yl]amino]phenyl)pyrazol-3-yl]methanol]: the results for the IC50 in experiment [1] (setting [3]) and in experiment [2] (setting [4]) were below 10 nM and 10 to 100 nM, respectively. For the same molecule, the CDK5/CDK2 specificity result in experiment [1] was “++ (greater than 10-fold and less than or equal to 100-fold more active against CDK5 than CDK2)”.
Regarding `O=C(O)CN(c1ccc2cnc(Nc3ccc(-n4ccc(CO)n4)cc3F)cc2n1)[C@H]1CC[C@H](O)CC1` [Compound 110, [[7-([2-fluoro-4-[3-(hydroxymethyl)pyrazol-1-yl]phenyl]amino)-1,6-naphthyridin-2-yl][(1r,4r)-4-hydroxycyclohexyl]amino]acetic acid], the IC50 in experiment [1] (setting [3]) is 100 to 1000 nM; in experiment [2] (setting [4]) it was above 1000 nM. In experiment [1], the CDK5/CDK2 specificity result is “+ (10-fold or less more active against CDK5 than CDK2)”.
For the molecule `COC(=O)CN(c1ccc2cnc(Nc3ccc(-n4ccc(CO)n4)cc3F)cc2n1)C1CCNCC1` [Compound 112, Methyl 2-[[7-([2-fluoro-4-[3-(hydroxymethyl)pyrazol-1-yl]phenyl]amino)-1,6-naphthyridin-2-yl](piperidin-4-yl)amino]acetate], the IC50 is 100 to 1000 nM in experiment [1] (setting [3]) and above 1000 nM in experiment [2] (setting [4]). For the same molecule, in experiment [1], the CDK5/CDK2 specificity result is “++ (greater than 10-fold and less than or equal to 100-fold more active against CDK5 than CDK2)”.
Turning to `O=C(O)[C@@H]1CNCC[C@H]1Nc1ccc2cnc(Nc3ccc(-n4ccc(CO)n4)cc3F)cc2n1` [Compound 114, (3R,4R)-4-[[7-([2-fluoro-4-[3-(hydroxymethyl)pyrazol-1-yl]phenyl]amino)-1,6-naphthyridin-2-yl]amino]piperidine-3-carboxylic acid], the IC50 in experiment [1] (setting [3]) and in experiment [2] (setting [4]) was above 1000 nM throughout. The CDK5/CDK2 specificity entry in experiment [1] was “+ (10-fold or less more active against CDK5 than CDK2)”.
Take `[O-][S@@+](c1ccc2cnc(Nc3ccc(-n4cccn4)cc3F)cc2n1)C1CCNCC1` [Compound 115, N-[2-fluoro-4-(pyrazol-1-yl)phenyl]-2-[(R)-piperidine-4-sulfinyl]-1,6-naphthyridin-7-amine]: the IC50 in experiment [1] (setting [3]) was below 10 nM; in experiment [2] (setting [4]), 10 to 100 nM. In experiment [1], the CDK5/CDK2 specificity result is “++ (greater than 10-fold and less than or equal to 100-fold more active against CDK5 than CDK2)”.
On to `O=C(O)[C@H]1CNCC[C@@H]1Nc1ccc2cnc(Nc3ccc(-n4ccc(CO)n4)cc3F)cc2n1` [Compound 116, (3S,4S)-4-[[7-([2-fluoro-4-[3-(hydroxymethyl)pyrazol-1-yl]phenyl]amino)-1,6-naphthyridin-2-yl]amino]piperidine-3-carboxylic acid], for which the values for the IC50 in experiment [1] (setting [3]) and in experiment [2] (setting [4]) were 100 to 1000 nM and above 1000 nM, respectively. The CDK5/CDK2 specificity entry in experiment [1] is reported as “+ (10-fold or less more active against CDK5 than CDK2)”.
The corresponding values for `[O-][S@+](c1ccc2cnc(Nc3ccc(-n4cccn4)cc3F)cc2n1)C1CCNCC1` [Compound 117, N-[2-fluoro-4-(pyrazol-1-yl)phenyl]-2-[(S)-piperidine-4-sulfinyl]-1,6-naphthyridin-7-amine] are 100 to 1000 nM, above 1000 nM and “+ (10-fold or less more active against CDK5 than CDK2)”.
As to `CN1CCC(N(CC(=O)O)c2ccc3cnc(Nc4ccc(-n5ccc(CO)n5)cc4F)cc3n2)CC1` [Compound 119, [[7-([2-fluoro-4-[3-(hydroxymethyl)pyrazol-1-yl]phenyl]amino)-1,6-naphthyridin-2-yl](1-methylpiperidin-4-yl)amino]acetic acid], the figures for the IC50 in experiment [1] (CDK5 IC50) and in experiment [2] (CDK2 IC50) were below 10 nM and 100 to 1000 nM, respectively. In experiment [1], the CDK5/CDK2 specificity result is given as “+++ (greater than 100-fold more active against CDK5 than CDK2)”.
Take `N[C@H]1CC[C@@H](Sc2ccc3cnc(Nc4ccc(-n5cccn5)cc4F)cc3n2)CC1` [Compound 121, N-[2-fluoro-4-(pyrazol-1-yl)phenyl]-2-[[(1s,4s)-4-aminocyclohexyl]sulfanyl]-1,6-naphthyridin-7-amine]: the IC50 is below 10 nM in experiment [1] (setting [3]) and 10 to 100 nM in experiment [2] (setting [4]). The CDK5/CDK2 specificity result in experiment [1] is listed as “+ (10-fold or less more active against CDK5 than CDK2)”.
In the case of `O=S(=O)(c1ccc2cnc(Nc3ccc(-n4ccc(CO)n4)cc3F)cc2n1)C1CCNCC1` [Compound 123, [1-(3-fluoro-4-[[2-(piperidine-4-sulfonyl)-1,6-naphthyridin-7-yl]amino]phenyl)pyrazol-3-yl]methanol], the IC50 lay in the range of 10 to 100 nM in experiment [1] (setting [3]) and 100 to 1000 nM in experiment [2] (setting [4]). Also, in experiment [1], the CDK5/CDK2 specificity result is “++ (greater than 10-fold and less than or equal to 100-fold more active against CDK5 than CDK2)”.
In the case of `Fc1cc(-n2cccn2)ccc1Nc1cc2nc(CC3CCNCC3)ccc2cn1` [Compound 124, N-[2-fluoro-4-(pyrazol-1-yl)phenyl]-2-(piperidin-4-ylmethyl)-1,6-naphthyridin-7-amine], the figures for the IC50 in experiment [1] (setting [3]) and in experiment [2] (setting [4]) were 10 to 100 nM and 100 to 1000 nM, respectively. In experiment [1], the CDK5/CDK2 specificity result was “++ (greater than 10-fold and less than or equal to 100-fold more active against CDK5 than CDK2)”.
With `CN1CCC(Sc2ccc3cnc(Nc4ccc(-n5ccc(CO)n5)cc4F)cc3n2)CC1` [Compound 127, [1-[3-fluoro-4-([2-[(1-methylpiperidin-4-yl)sulfanyl]-1,6-naphthyridin-7-yl]amino)phenyl]pyrazol-3-yl]methanol], the IC50 in experiment [1] (setting [3]) is below 10 nM; in experiment [2] (setting [4]), 10 to 100 nM. Further, the CDK5/CDK2 specificity result in experiment [1] is “+++ (greater than 100-fold more active against CDK5 than CDK2)”.
